Results taken from patent US20150366879A1, “DIFLUPREDNATE EMULSION COMPOSITION CONTAINING ANTIMICROBIAL METAL” (SENJU PHARMACEUTICAL CO., LTD., priority 2013, published 2015).
Structures can show the parent of a compound that is named as a salt. Where two headings read alike, the source gives them in different places.

Test system: Staphylococcus aureus, Escherichia coli and Pseudomonas aeruginosa
Experiment: preservative efficacy test, judgment of immediate effectiveness over all microbial species
Assay type: cell-based
Protocol: As the test microorganism, Staphylococcus aureus (ATCC 6538), Escherichia coli (ATCC 8739) and Pseudomonas aeruginosa (ATCC 9027) were used. Each test microorganism was inoculated on the surface of a slant agar medium and precultured. The preculture was conducted using a soybean casein digest agar medium at 30-35° C. for 18-24 hr.
An emulsion composition to be subjected to the test was used as a sample, and the sample was dispensed to 5 sterilized stoppered test tubes by 10 mL each. A precultured test microorganism was added to the sample such that the cell count was 10^5-10^6 cells/mL to give a mixed sample. The test microorganism was singly added to the sample. The mixed sample was preserved at 20-25° C. with protection from light.
At 6 hr and 24 hr from the start of the preservation, 1 mL of each mixed sample was taken, and the solution was diluted with saline (9 mL). Similar dilution was performed 2-3 times and each diluted solution (1 mL) was dispensed to a sterilized petri dish, and then, 0.1 (w/v) % lecithin-0.7 (w/v) % polysorbate 80-added soybean casein digest agar medium was added to the bacteria, and the mixture was cultured at 30-35° C. for about 3 days. The colony forming units were measured, and the viable cell count per 1 mL of the mixed sample was calculated.
When the viable cell counts of all microbial species decreased by 3 log or more after 24 hr from the start of the test, an immediate effectiveness of preservative efficacy was judged to be present and the judgment was compatible. When further immediate effectiveness of preservative efficacy is demanded, it was judged to be present when the viable cell counts of all microbial species decreased by 3 log or more after 24 hr from the start of the test and the viable cell counts of all microbial species decreased by 2 log or more after 6 hr from the start of the test, and the judgment was compatible.

[1] = added as preservative to difluprednate emulsion composition

benzalkonium chloride
immediate effectiveness of preservative efficacy [1]: not found

C/C=C/C=C/C(=O)O [sorbic acid]
immediate effectiveness of preservative efficacy [1]: not found

O=[N+]([O-])[O-].[Ag+] [silver nitrate]
concentration at which further (excellent) immediate effectiveness was found (as silver ion, 6 hr and 24 hr criteria, in difluprednate emulsion): not less than 0.005 (w/v) % | concentration at which immediate effectiveness of preservative efficacy was found (as silver ion, 24 hr criterion, in difluprednate emulsion): not less than 0.0005 (w/v) %

Oc1cccc2cccnc12 [oxyquinoline sulfate]
immediate effectiveness of preservative efficacy: not found

O=S(=O)([O-])[O-].[Cu+2] [copper sulfate]
concentration at which excellent immediate effectiveness of preservative efficacy was obtained: not less than 0.0005 (w/v) %
